Where “and” joins values, the source holds several entries; their conditions need not be identical. Equal entries are not always repeated. Inconclusive results and toxic doses are left out. How the source made its calls: active means survival T/C of 150% or more; inactive means T/C below 125% in these data. Residues, ends and D or L forms follow the SMILES beside them. *: point of attachment. Trt = c1ccc(C(c2ccccc2)(c2ccccc2)*)cc1
System: CD2F1 mice, L1210 leukemia ip, survival T/C
Experiment: NCI In Vivo Anticancer Drug Screen. Data for tumor model L1210 Leukemia (intraperitoneal) in CD2F1 (CDF1) mice
Conditions: endpoint: mean survival time, higher = longer survival
Procedure, shortened: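 Vehicle-treated tumor-bearing mice served as controls (C) for compound-treated mice (T). Reported figure is T divided by C.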

[1] = dose: 100.0 mg/kg/injection, schedule: Q04DX002 (ip), vehicle: saline with Tween-80
[2] = dose: 200.0 mg/kg/injection, schedule: Q04DX002 (ip), vehicle: saline with Tween-80
[3] = dose: 50.0 mg/kg/injection, schedule: Q01DX009 (ip), vehicle: saline with Tween-80
[4] = dose: 100.0 mg/kg/injection, schedule: Q01DX009 (ip), vehicle: saline with Tween-80
[5] = dose: 200.0 mg/kg/injection, schedule: Q01DX009 (ip), vehicle: saline with Tween-80
[6] = dose: 400.0 mg/kg/injection, schedule: Q01DX009 (ip), vehicle: saline with Tween-80
[7] = dose: 50.0 mg/kg/injection, schedule: Q04DX002 (ip), vehicle: saline with Tween-80
[8] = dose: 6.25 mg/kg/injection, schedule: Q01DX009 (ip), vehicle: saline with Tween-80
[9] = dose: 25.0 mg/kg/injection, schedule: Q01DX009 (ip), vehicle: saline
[10] = dose: 50.0 mg/kg/injection, schedule: Q01DX009 (ip), vehicle: saline
[11] = dose: 100.0 mg/kg/injection, schedule: Q01DX009 (ip), vehicle: saline
[12] = dose: 100.0 mg/kg/injection, schedule: Q04DX003 (ip), vehicle: saline with Tween-80
[13] = dose: 200.0 mg/kg/injection, schedule: Q04DX003 (ip), vehicle: saline with Tween-80
[14] = dose: 400.0 mg/kg/injection, schedule: Q04DX003 (ip), vehicle: saline with Tween-80
[15] = dose: 6.25 mg/kg/injection, schedule: Q01DX009 (ip), vehicle: saline
[16] = dose: 100.0 mg/kg/injection, schedule: Q01DX001 (ip), vehicle: saline with Tween-80
[17] = dose: 200.0 mg/kg/injection, schedule: Q01DX001 (ip), vehicle: saline with Tween-80
[18] = dose: 400.0 mg/kg/injection, schedule: Q01DX001 (ip), vehicle: saline with Tween-80

Measured: T/C

NC(=O)C(CCCCC(C(N)=O)C(N)=O)C(N)=O
inactive: [1] 96 % of control | [2] 108 % of control | dose: 400.0 mg/kg/injection, schedule: Q04DX002 (ip), vehicle: saline with Tween-80 108 % of control

CC/C=C(/CC)C1CCCCC1C (centres undefined)
inactive: [3] 87 % of control | [4] 96 % of control | [5] 96 % of control

COC(=O)CC(=O)OCC1C=CCC=C1
inactive: [4] 98 % of control | [5] 98 % of control | [6] 100 % of control

O=C1NCCC/C1=N/Nc1ccccc1
inactive: [7] 100 % of control | [4] 96 % of control | [1] 108 % of control | [5] 96 % of control | [2] 112 % of control | [6] 91 % of control

CC(C)N1C(=O)C=C(c2ccc([N+](=O)[O-])cc2)C1=O
inactive: [8] 93 % of control | dose: 12.5 mg/kg/injection, schedule: Q01DX009 (ip), vehicle: saline with Tween-80 95 % of control | dose: 25.0 mg/kg/injection, schedule: Q01DX009 (ip), vehicle: saline with Tween-80 95 % of control | [3] 95 % of control

COC(=O)C(CC(C)C)NC(=O)C(N)CSC(c1ccccc1)(c1ccccc1)c1ccccc1 (centres undefined) (H-Cys(Trt)-Leu-OMe; configuration not given here)
inactive: [9] 104 % of control | [10] 110 % of control | [11] 108 % of control

O=P(O)(O)CP(=O)(O)O.[NH-]CC[NH-].[NH-]CC[NH-].[Pd+2].[Pd+2]
inactive: dose: 3.13 mg/kg/injection, schedule: Q04DX003 (ip), vehicle: distilled water + Tween-80 95 % of control | dose: 6.25 mg/kg/injection, schedule: Q04DX003 (ip), vehicle: distilled water + Tween-80 106 % of control | dose: 12.5 mg/kg/injection, schedule: Q04DX003 (ip), vehicle: distilled water + Tween-80 95 % of control | dose: 25.0 mg/kg/injection, schedule: Q04DX003 (ip), vehicle: distilled water + Tween-80 97 % of control | dose: 50.0 mg/kg/injection, schedule: Q04DX003 (ip), vehicle: distilled water + Tween-80 98 % of control | dose: 100.0 mg/kg/injection, schedule: Q04DX003 (ip), vehicle: distilled water + Tween-80 106 % of control

CN(C)C1CC2C=CC1C1C=CC21 (centres undefined)
inactive: dose: 6.25 mg/kg/injection, schedule: Q01DX009 (ip), vehicle: water 100 % of control | dose: 12.5 mg/kg/injection, schedule: Q01DX009 (ip), vehicle: water 97 % of control | dose: 25.0 mg/kg/injection, schedule: Q01DX009 (ip), vehicle: water 101 % of control | dose: 50.0 mg/kg/injection, schedule: Q01DX009 (ip), vehicle: water 103 % of control

CC(=O)Nc1ccc(C(=O)O)cc1
inactive: [12] 96 % of control | [13] 98 % of control | [14] 100 % of control

CN(C)C(c1ccccc1)C(O)c1ccccc1 (centres undefined)
inactive: dose: 75.0 mg/kg/injection, schedule: Q01DX001 (ip), vehicle: saline 103 % of control | dose: 150.0 mg/kg/injection, schedule: Q01DX001 (ip), vehicle: saline 97 % of control

CC(=O)c1ccccc1[N+](=O)[O-]
inactive: [4] 94 % of control | [5] 95 % of control

Nc1nc2c(ncn2C2CC3[O][Sn]([c]4ccccc4)([c]4ccccc4)[O]CC3O2)c(=O)[nH]1 (centres undefined)
inactive: dose: 6.25 mg/kg/injection, schedule: Q01DX005 (ip), vehicle: distilled water + Tween-80 104 % of control | dose: 12.5 mg/kg/injection, schedule: Q01DX005 (ip), vehicle: distilled water + Tween-80 93 % of control | dose: 25.0 mg/kg/injection, schedule: Q01DX005 (ip), vehicle: distilled water + Tween-80 93 % of control | dose: 50.0 mg/kg/injection, schedule: Q01DX005 (ip), vehicle: distilled water + Tween-80 90 % of control | dose: 100.0 mg/kg/injection, schedule: Q01DX005 (ip), vehicle: distilled water + Tween-80 106 % of control

O=C(COc1cccc(Cl)c1)NCc1ccccc1
inactive: [12] 99 % of control | [13] 96 % of control | [14] 99 % of control

C1CN2CCN1CC2.O.[Cl][Pt][Cl]
inactive: dose: 12.5 mg/kg/injection, schedule: Q01DX005 (ip), vehicle: water 97 % of control | dose: 25.0 mg/kg/injection, schedule: Q01DX005 (ip), vehicle: water 92 % of control | dose: 50.0 mg/kg/injection, schedule: Q01DX005 (ip), vehicle: water 92 % of control | dose: 50.0 mg/kg/injection, schedule: Q04DX003 (ip), vehicle: water 102 % of control | dose: 100.0 mg/kg/injection, schedule: Q01DX005 (ip), vehicle: water 96 % of control | dose: 100.0 mg/kg/injection, schedule: Q04DX003 (ip), vehicle: water 94 % of control | dose: 200.0 mg/kg/injection, schedule: Q01DX005 (ip), vehicle: water 96 % of control | dose: 200.0 mg/kg/injection, schedule: Q04DX003 (ip), vehicle: water 95 % of control | dose: 400.0 mg/kg/injection, schedule: Q04DX003 (ip), vehicle: water 107 % of control

Cc1ccc2cc3c(ccc4ccccc43)c3c2c1CC3
inactive: [3] 93 % of control | [4] 110 % of control | [5] 97 % of control | [6] 100 % of control

O=[N+]([O-])c1cc(S(=O)(=O)c2ccc(N3CCOCC3)c([N+](=O)[O-])c2)ccc1N1CCOCC1
inactive: [4] 93 % of control | [5] 101 % of control | [6] 92 % of control

NNC(=S)N/N=C/c1ccccn1
inactive: dose: 1.56 mg/kg/injection, schedule: Q01DX009 (ip), vehicle: saline 93 % of control and 98 % of control | dose: 3.12 mg/kg/injection, schedule: Q01DX009 (ip), vehicle: saline 98 % of control and 100 % of control | [8] 105 % of control | [15] 115 % of control | dose: 6.25 mg/kg/injection, schedule: Q04DX003 (ip), vehicle: saline with Tween-80 118 % of control | dose: 6.3 mg/kg/injection, schedule: Q01DX009 (oral), vehicle: saline 92 % of control | dose: 12.5 mg/kg/injection, schedule: Q01DX009 (oral), vehicle: saline 98 % of control | dose: 12.5 mg/kg/injection, schedule: Q04DX003 (ip), vehicle: saline with Tween-80 98 % of control | dose: 25.0 mg/kg/injection, schedule: Q04DX003 (ip), vehicle: saline with Tween-80 102 % of control

O=C(O)/C=C/SCCC(=O)O
inactive: [12] 93 % of control and 101 % of control | [13] 101 % of control and 94 % of control

FC(F)Cc1cccc(C(F)(F)F)c1
inactive: [16] 107 % of control | dose: 100.0 mg/kg/injection, schedule: Q04DX003 (ip), vehicle: saline sonified 98 % of control | [17] 103 % of control | dose: 200.0 mg/kg/injection, schedule: Q04DX003 (ip), vehicle: saline sonified 100 % of control | [18] 104 % of control | dose: 400.0 mg/kg/injection, schedule: Q04DX003 (ip), vehicle: saline sonified 100 % of control

CN(C=O)c1cc2c3c(c1)CCCN3CCC2
inactive: [3] 100 % of control | [16] 105 % of control | [17] 104 % of control

OC1CCC2CCC1C2 (centres undefined)
inactive: [16] 102 % of control | [17] 104 % of control | [18] 101 % of control

Cc1ccc(C#CP(C#Cc2ccc(C)cc2)C#Cc2ccc(C)cc2)cc1
inactive: dose: 1.56 mg/kg/injection, schedule: Q01DX009 (ip), vehicle: saline with Tween-80 92 % of control | dose: 3.12 mg/kg/injection, schedule: Q01DX009 (ip), vehicle: saline with Tween-80 96 % of control | [15] 96 % of control | [9] 96 % of control

CC(/C=N/N(C)C)=N/[N+](C)(C)C
inactive: [10] 101 % of control | [11] 101 % of control

COc1ccc(C2CCc3cc4c(cc3C2=O)OCO4)cc1OC (centres undefined)
inactive: [12] 98 % of control | [13] 96 % of control | [14] 91 % of control

O=C1c2[nH]c3ccccc3c2CC1N1C(=O)c2ccccc2C1=O (centres undefined)
inactive: [12] 87 % of control | [13] 93 % of control | [14] 91 % of control

O=CC1C(=O)N(c2ccccc2)c2ccccc21 (centres undefined)
inactive: dose: 50.0 mg/kg/injection, schedule: Q04DX003 (ip), vehicle: Klucel (hydroxypropylcellulose) (HPC) 98 % of control | dose: 100.0 mg/kg/injection, schedule: Q04DX003 (ip), vehicle: Klucel (hydroxypropylcellulose) (HPC) 106 % of control | dose: 200.0 mg/kg/injection, schedule: Q04DX003 (ip), vehicle: Klucel (hydroxypropylcellulose) (HPC) 96 % of control

Nc1cccc(OCC(O)CN2CCN(c3ccccc3)CC2)c1 (centres undefined)
inactive: [7] 93 % of control | [1] 89 % of control and 94 % of control | [2] 112 % of control

From PubChem BioAssay AID256 (DTP/NCI, 2004)
